# Key:
# Type in all cases: functional, cell-based
# LNCaP = assay: Antiproliferative activity was evaluated against human prostate LNCaP cancer cell lines using the sulforhodamine B ([…]) assay
# [1] = Antiproliferative activity was evaluated against human prostate PPC-1 cancer cell lines using the sulforhodamine B ([…]) assay
# PC-3 = assay: Antiproliferative activity was evaluated against human prostate PC-3 cancer cell lines using the sulforhodamine B ([…]) assay
# DU-145 = assay: Antiproliferative activity was evaluated against human prostate DU-145 cancer cell lines using the sulforhodamine B ([…]) assay
# [2] = Antiproliferative activity was evaluated against human prostate TSU cancer cell lines using the sulforhodamine B ([…]) assay
SMILES,IC50 (LNCaP),IC50 [1],IC50 (PC-3),IC50 (DU-145),IC50 [2]
CCCCCCCCCCCCCCCCCCNCCN1CCSC1c1ccccc1 (centres undefined),> 20 µM,12 µM,> 20 µM,15.8 µM,6.1 µM
COc1ccc(CCNC(=O)CN2C(=O)CSC2c2ccccc2)cc1OC (centres undefined),> 100 µM,> 100 µM,> 100 µM,,> 100 µM

# From ChEMBL document CHEMBL1137918, “Synthesis and antiproliferative activity of 2-aryl-4-oxo-thiazolidin-3-yl-amides for prostate cancer” (Bioorg Med Chem Lett, 2004)
